Active and inactive are the calls of the source. The rule behind the calls is not given here.

The source of these data is ChEMBL document CHEMBL3046090, “Mechanism of the Phytotoxic Action of Herbicidal N-Isobutyl-N-(4-substituted benzyl)-4-halo-2-pentenamides” (J Pestic Sci, 2002).

The subject of series [1] is Gossypium hirsutum. Kind of series: Phytotoxicity against Gossypium hirsutum (cotton) seedlings assessed as heavily dark-browning with wrinkling measured under dark conditions at 100 uM. Type of series: functional, organism-based.
Series [2] is described as follows: Dissociation constant, pKa of the compound. Format: physicochemical.
Series [3] concerns Lathyrus oleraceus. Kind of series: Inhibition of Succinate-cytochrome c reductase in Pisum sativum (pea) mitochondrial respiratory-chain electron-transport system at 100 uM.
The subject of series [4] is Gossypium hirsutum. Kind of series: Phytotoxicity against Gossypium hirsutum (cotton) seedlings assessed as complete killing measured under light conditions at 100 uM. Format: functional, organism-based.
For series [5], the system named is Gossypium hirsutum. The experiment in a line: Phytotoxicity against Gossypium hirsutum (cotton) seedlings assessed as cotyledons are killed but stems are not wilted measured under light conditions at 100 uM. Type of series: functional, organism-based.
Series [6] deals with Gossypium hirsutum. The experiment in a line: Phytotoxicity against Gossypium hirsutum (cotton) seedlings assessed as damage measured under dark conditions at 100 uM. Type of series: functional, organism-based.
The subject of series [7] is Lathyrus oleraceus. The experiment in a line: Inhibition of Succinate-cytochrome c reductase in Pisum sativum (pea) mitochondrial respiratory-chain electron-transport system at 0.1 uM.
Series [8] relates to Gossypium hirsutum. The experiment in a line: Phytotoxicity against Gossypium hirsutum (cotton) seedlings assessed as cotyledons are killed and stems are partially survived measured under light conditions at 100 uM. Type of series: functional, organism-based.
The test system of series [9] is Gossypium hirsutum. Kind of series: Phytotoxicity against Gossypium hirsutum (cotton) seedlings assessed as light darkening measured under dark conditions at 100 uM. Type of series: functional, organism-based.
For series [10], the system named is Gossypium hirsutum. The experiment in a line: Phytotoxicity against Gossypium hirsutum (cotton) seedlings assessed as cotyledons are damaged with green spots measured under light conditions at 100 uM. Type of series: functional.
The subject of series [11] is Gossypium hirsutum. Kind of series: Phytotoxicity against Gossypium hirsutum (cotton) seedlings assessed as moderate darkening measured under dark conditions at 100 uM. Format: functional, organism-based.

`CC(Cl)/C=C/C(=O)N(Cc1ccc(C#N)cc1)CC(C)C` (stereo not given): the outcome in [1] and in series [4] was Active. Besides, the pKa (commonly the negative logarithm of the acid dissociation constant) in series [2] was determined as 4.82. Besides, in series [3], the inhibition (as a rule, how much of the control response was suppressed) worked out at 4.6%.

Turning to `CC(Br)/C=C/C(=O)N(Cc1ccc(Cl)cc1)CC(C)C` (stereo not given), the outcome in [1] and in [5] was Active. Also, the inhibition in [3] turned out to be 0%.

For the compound `COC(=O)CSc1cc(/N=c2\sc(=O)n3n2CCCC3)c(F)cc1Cl`, the outcome in series [6] was inactive. Moreover, the outcome in series [4] was Active.

With `CCCCCC[C@H]1C(=O)O[C@H](C)[C@H](NC(=O)c2cccc(NC=O)c2O)C(=O)O[C@@H](C)[C@@H]1OC(=O)CC(C)C`, the inhibition in series [7] was determined as 100%.

For the compound `CC(C)Oc1cc(-n2nc(C(C)(C)C)oc2=O)c(Cl)cc1Cl`, in [6], the result was inactive. Also, the result in series [8] was Active.

For the compound `CC(Cl)/C=C/C(=O)N(Cc1ccc(S(C)(=O)=O)cc1)CC(C)C` (stereo not given), in series [9], the outcome was Active. This compound also displayed an inhibition in series [3] of 5.8%. In addition, in series [10], the Activity stood at 50%.

For the compound `O=[N+]([O-])c1ccc(Oc2ccc(Cl)cc2Cl)cc1` [NITROFEN], the outcome in series [6] was inactive. The Activity in series [10] came to 10%.

For the compound `CCOc1cc(Oc2ccc(C(F)(F)F)cc2Cl)ccc1[N+](=O)[O-]` [OXYFLUORFEN], the pKa in series [2] turned out to be 7.63.

`CC(Cl)/C=C/C(=O)N(Cc1ccc(Cl)cc1)CC(C)C` (stereo not given): the inhibition in series [3] amounted to 0%. In addition, the outcome in [11] and in [5] was Active.

Take `CC(Cl)/C=C/C(=O)N(Cc1ccc(C(F)(F)F)cc1)CC(C)C` (stereo not given): the inhibition in [3] turned out to be 1.2%. Moreover, the outcome in series [11] was Active. Besides, the Activity in [10] was determined as 10%.

In [2], `O=C1C2=C(CCCC2)C(=O)N1c1ccc(Cl)cc1` [CHLOROPHTHALIUM] showed a pKa of 6.43.
